From patent US20130225641A1, “ANTICANCER COMPOUNDS AND PREPARATION METHODS THEREOF” (priority 2010, published 2013) come the findings set out here.

Holding throughout (assay type): in vivo, nude mice (nu/nu)
The nature of data set [1]: Side effects in tumor transplanted nude mice. Conditions: during treatment. As to the method: (§1) T-cell deficient nude mice (nu/nu) of 6 weeks old were purchased from Charles River Laboratory, and housed and treated in a sterile environment following Institutional Animal Care & Use Committee Program. 48 mice were respectively subcutaneously inoculated on ribbed belly with 5×10^6 human liver cancer cells (HepG3B), human lung caner cells (NCI-H23), and human colon cancer cells (HCT-116) suspended in 0.2 ml HBSS/matrigel (50:50, V/V). When the tumor grew to have an average diameter of 7-8 mm and a volume of about 100-200 mm^3, 24 mice were picked up, and assigned to treatment groups (16 animals/2 groups), and a control group (8 animals). The 2 treatment groups were administered with the compounds ZTP and ZTQ dissolved in 15% Captsol respectively at a dose of 30 mg/kg and 60 mg/kg, and the control group only received an excipient (15% Captsol).
(§2) The dose schedule of the test compounds in the tumor transplanted nude mice was as follows: the compounds ZTP and ZTQ dissolved in 15% Captsol were daily orally administered as a 200 μl solution containing 0.75 mg of ZTP and 1.5 mg of ZTQ for 5 days/week over 3 consecutive weeks, followed by one-week break; and the control group was only administered with 200 μl of the placebo (15% Captsol) for 3 weeks, followed by 1 week of break. The two groups of animals were housed separately, and allowed to free access to food.

In data set [2] the test system is human liver cancer cells (HepG3B). Briefly: Transplantation model of human liver cancer (HepG3B) in nude mice. The note with it: HepG3B subcutaneous in nude mice; oral daily 5 days/week, 3 weeks; ZTP 30 mg/kg, ZTQ 60 mg/kg; lower = stronger. As to the method: as §1
(§3) The same number of mice of each type was assigned to the control group and the treatment groups with the compounds ZTP and ZTQ respectively.
as §2
(§4) Evaluation of antitumor effect: the tumor size was measured every 3 or 4 days. The tumor volume was calculated using the equation below: […], in which a denotes the width (the shorter diameter), and b denotes the length (the longer diameter). Relative tumor volume (RTV) of each tumor refers to the ratio of the volume at a specified time to that at the beginning of the treatment. The average RTV for each treatment group was calculated. The antitumor activity was determined by calculating the tumor growth inhibition using a formula below. […]

Data set [3] has as its system human lung cancer cells (NCI-H23). Briefly: Transplantation model of human lung cancer (NCI-H23) in nude mice. Conditions: NCI-H23 subcutaneous in nude mice; oral daily 5 days/week, 3 weeks; ZTP 30 mg/kg, ZTQ 60 mg/kg; lower = stronger. As to the method: as §1, §3, §2, §4
Data set [4] concerns human colon cancer cells (HCT-116). Briefly: Transplantation model of human colon cancer (HCT-116) in nude mice. The note with it: HCT-116 subcutaneous in nude mice; oral daily 5 days/week, 3 weeks; ZTP 30 mg/kg, ZTQ 60 mg/kg; lower = stronger. On the procedure:
as §1, §3, §2, §4

With `CNC(=O)c1cc(Oc2ccc(NC(=O)Nc3ccc(Cl)c(C(F)(F)F)c3)cc2)ccn1` [Sorafenib, reference compound], the “side effect, including the change in body weight” value in data set [1] is given as “relatively large side effect”. Further, the “TGI (T/C×100)” value in data set [2] is given as 14%; in data set [3], 11.25%; in data set [4], 33%.

“N-[4-chloro-3-(trifluoromethyl)phenyl]-[4-(N-methyl-formamide)(4-pyridyloxy)phenyl]-thiourea [ZTP]”: in data set [1], the “side effect, including the change in body weight” value is listed as “no obvious side effect”.
